Consider eleven compounds from ChEMBL document CHEMBL1201862, “PubChem BioAssay data set” (2004).

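Following 48 hours of exposure in 96-well plates, responses at five concentrations were used to interpolate endpoints linearly. Here, GI50 denotes the concentration required for 50% inhibition of growth.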 The source made the active and inactive calls. Cut-off read from the data, not from the text of the source: active = GI50 up to about 1.1 µM and inactive = higher.

Some test systems named below: A498; HCT-116; HOP-62; HOP-92; Hs-578T; KM12; M14; MDA-N; OVCAR-3; OVCAR-4; OVCAR-5; OVCAR-8; SF-268; SF-295; SK-MEL-28; SNB-75; T47D; UO-31; HL-60.
Common to all, as to experiment: NCI-60 cell line screen, 48 h

In the case of `CN(C(=O)Cc1cccc(N=C=S)c1)[C@H]1CCCC[C@@H]1N1CCCC1`, the GI50 in the experiment on A498 was 17.2 µM (inactive); in the experiment with HCT-116 it was 13 µM (inactive); in the experiment on HOP-62 it was 16.3 µM (inactive); in the experiment with HOP-92, 13.8 µM (inactive); with Hs-578T, 25.3 µM (inactive); with KM12, 17.9 µM (inactive). The GI50 in the experiment with M14 is 17.8 µM (inactive); with MDA-N, 14.1 µM (inactive); in the experiment with OVCAR-3, 14.1 µM (inactive); in the experiment with OVCAR-4 it was 14.7 µM (inactive); in the experiment with OVCAR-5 it was 19.2 µM (inactive); in the experiment with OVCAR-8 it was 16.2 µM (inactive). Besides, the GI50 with SF-268 was 20 µM (inactive); in the experiment with SF-295, 27.6 µM (inactive); in the experiment on SK-MEL-28 it was 16.1 µM (inactive); with SNB-75, 14.1 µM (inactive); in the experiment with T47D it was 11.4 µM (inactive); with UO-31, 14.7 µM (inactive).
For `CC(=O)OCC1OC(N2C(c3ccccc3)=CC(c3ccccc3)C(C#N)=C2S)C(OC(C)=O)C(OC(C)=O)C1OC(C)=O` (configuration not stated), the GI50 with A498 was 20.2 µM (inactive); in the experiment with HCT-116 it was 5.92 µM (inactive); in the experiment on HOP-62, 4.06 µM (inactive); in the experiment with HOP-92, 3.81 µM (inactive); in the experiment on Hs-578T, 3.27 µM (inactive); in the experiment on KM12 it was 15.7 µM (inactive). The GI50 in the experiment on M14 is 12.6 µM (inactive); with MDA-N, 2.02 µM (inactive); in the experiment on OVCAR-3 it was 16.9 µM (inactive); in the experiment with OVCAR-4, 1.55 µM (inactive); in the experiment on OVCAR-5, 14.6 µM (inactive); with OVCAR-8, 3.88 µM (inactive). In addition, the GI50 in the experiment with SF-268 was 5.33 µM (inactive); in the experiment on SF-295, 2.04 µM (inactive); in the experiment with SK-MEL-28 it was 8.95 µM (inactive); with SNB-75, 10.4 µM (inactive); with T47D, 3.99 µM (inactive); in the experiment on UO-31, 19.2 µM (inactive).
As to `C/C=C\C(CC(=O)NCC(=O)c1c[nH]c2ccccc12)CC(=O)OC` (configuration not stated), the GI50 with A498, with HCT-116, with HOP-62, in the experiment on HOP-92, with Hs-578T and with KM12 was > 100 µM (inactive) each time. The GI50 in the experiment on M14, with MDA-N, in the experiment with OVCAR-3, in the experiment with OVCAR-4, with OVCAR-5 and in the experiment on OVCAR-8 was > 100 µM (inactive) in each case. For the same compound, the GI50 in the experiment on SF-268, in the experiment on SF-295, in the experiment with SK-MEL-28, in the experiment with SNB-75, with T47D and with UO-31 was > 100 µM (inactive) throughout.
Turning to `CCON1CC(C(=O)OC)=C(O)C1=O`, the GI50 in the experiment on A498, in the experiment with HCT-116, with HOP-62, in the experiment on HOP-92, in the experiment on Hs-578T and in the experiment with KM12 was > 100 µM (inactive) each time. Also, the GI50 in the experiment with M14, with MDA-N, in the experiment with OVCAR-3, in the experiment with OVCAR-4, with OVCAR-5 and in the experiment with OVCAR-8 was > 100 µM (inactive) each time. Moreover, the GI50 in the experiment on SF-268, in the experiment on SF-295, in the experiment on SK-MEL-28, in the experiment on SNB-75, in the experiment on T47D and in the experiment on UO-31 was > 100 µM (inactive) each time.
`C=CC(C)(C)C(=C)C(=O)Nc1ccccc1I`: the GI50 in the experiment on A498 is > 100 µM (inactive); with HCT-116, 81.8 µM (inactive); in the experiment on HOP-62 it was > 100 µM (inactive); in the experiment on HOP-92 it was > 100 µM (inactive); in the experiment with Hs-578T, > 100 µM (inactive); with KM12, > 100 µM (inactive). Also, the GI50 in the experiment on M14, with MDA-N, with OVCAR-3, in the experiment with OVCAR-4, with OVCAR-5 and in the experiment on OVCAR-8 was > 100 µM (inactive) in each case. Besides, the GI50 in the experiment on SF-268, in the experiment on SF-295, in the experiment with SK-MEL-28, with SNB-75, with T47D and in the experiment with UO-31 was > 100 µM (inactive) in each case.
Turning to `COc1cc(C(=O)N(C(=S)OCc2ccccn2)c2ccccc2)cc(OC)c1OC`, the GI50 with A498 was 53.5 µM (inactive); in the experiment with HCT-116, 44.1 µM (inactive); in the experiment with HL-60, 27 µM (inactive); with Hs-578T it was 53.7 µM (inactive); in the experiment on KM12, > 100 µM (inactive); in the experiment with M14 it was > 100 µM (inactive). In addition, the GI50 in the experiment with MDA-N is 96.4 µM (inactive); in the experiment with OVCAR-3, > 100 µM (inactive); with OVCAR-5, 49.2 µM (inactive); in the experiment on OVCAR-8, 62.2 µM (inactive); in the experiment with SF-268, > 100 µM (inactive); with SK-MEL-28, 92.3 µM (inactive). In addition, the results for the GI50 with T47D and in the experiment with UO-31 were 34.9 µM (inactive) and 25.4 µM (inactive), respectively.
Turning to `N#Cc1c(-c2ccccc2)cc(Nc2ccc(Cl)cc2)n2c1nc1ccccc12`, the GI50 in the experiment on A498 is 3.71 µM (inactive); in the experiment with HCT-116 it was 1.96 µM (inactive); in the experiment with HOP-62, 3.67 µM (inactive); in the experiment on HOP-92, 0.397 µM (active); with Hs-578T it was 1.59 µM (inactive); with KM12, 2.94 µM (inactive). The GI50 in the experiment on M14 was 4.23 µM (inactive); in the experiment on MDA-N, 2.42 µM (inactive); with OVCAR-3, 1.85 µM (inactive); with OVCAR-4 it was 3.23 µM (inactive); with OVCAR-5, 3.9 µM (inactive); with OVCAR-8, 2.96 µM (inactive). In addition, the GI50 in the experiment on SF-268 was 3.71 µM (inactive); in the experiment with SF-295, 3.4 µM (inactive); in the experiment with SK-MEL-28, > 55 µM (inactive); in the experiment with SNB-75 it was 5.47 µM (inactive); in the experiment on T47D, 2.71 µM (inactive); with UO-31, 2.49 µM (inactive).
On to `Cc1cc(=O)oc2c(C)c3oc(CBr)cc3cc12`, for which the GI50 with HCT-116 was 18.5 µM (inactive); in the experiment on HL-60, 18.3 µM (inactive); in the experiment with HOP-62, 16.2 µM (inactive); in the experiment on Hs-578T, 35.6 µM (inactive); in the experiment with KM12, 19.1 µM (inactive); in the experiment on M14, 18.2 µM (inactive). Moreover, the GI50 with MDA-N was 19.2 µM (inactive); in the experiment on OVCAR-3, 35.7 µM (inactive); in the experiment on OVCAR-4 it was 25.8 µM (inactive); with OVCAR-5 it was 16.8 µM (inactive); in the experiment with OVCAR-8, 23.8 µM (inactive); in the experiment with SF-268, 19.5 µM (inactive). Moreover, the GI50 in the experiment on SF-295 was 17.1 µM (inactive); in the experiment on SK-MEL-28 it was 19.8 µM (inactive); in the experiment on SNB-75, 22.6 µM (inactive); in the experiment with T47D, 17.3 µM (inactive); in the experiment on UO-31, 15.9 µM (inactive).
Turning to `Cc1cc2c(c(=O)n1C)SCC2`, the GI50 with A498, in the experiment with HCT-116, in the experiment with HOP-62, in the experiment with HOP-92, in the experiment with Hs-578T and in the experiment on KM12 was > 100 µM (inactive) in each case. Moreover, the GI50 with M14, in the experiment with MDA-N, in the experiment on OVCAR-3, in the experiment on OVCAR-4, with OVCAR-5 and with OVCAR-8 was > 100 µM (inactive) each time. In addition, the GI50 in the experiment on SF-268, in the experiment on SF-295, with SK-MEL-28, in the experiment with SNB-75, in the experiment with T47D and with UO-31 was > 100 µM (inactive) each time.
`CC(C)[C@H]1NC(=O)[C@H]2N=C(O[C@@H]2C)[C@@H]2CCCN2C(=O)[C@H](Cc2ccccc2)NC(=O)[C@@H]2CSC(=N2)[C@@H](Cc2ccccc2)NC(=O)[C@@H]2CSC1=N2`: the GI50 in the experiment on A498 is > 100 µM (inactive); with HCT-116 it was 90.8 µM (inactive); in the experiment on HL-60 it was > 100 µM (inactive); with HOP-62 it was > 100 µM (inactive); with Hs-578T it was > 100 µM (inactive); in the experiment on KM12, 88.1 µM (inactive). Further, the GI50 in the experiment on M14 was > 100 µM (inactive); in the experiment on MDA-N it was > 100 µM (inactive); with OVCAR-3, 38.5 µM (inactive); in the experiment on OVCAR-4, 38.2 µM (inactive); in the experiment with OVCAR-5 it was > 100 µM (inactive); in the experiment with OVCAR-8 it was > 100 µM (inactive). In addition, the GI50 in the experiment on SF-268 is > 100 µM (inactive); in the experiment with SF-295 it was > 100 µM (inactive); in the experiment on SK-MEL-28, 75.3 µM (inactive); with T47D, > 100 µM (inactive); in the experiment with UO-31 it was 59.8 µM (inactive).
With `N=C(N)SCCSC(=N)N`, the GI50 in the experiment on A498, in the experiment on HCT-116, in the experiment with HOP-62, in the experiment with HOP-92, in the experiment with Hs-578T and with KM12 was > 100 µM (inactive) throughout. The GI50 in the experiment on M14, in the experiment on MDA-N, in the experiment on OVCAR-3, with OVCAR-4, with OVCAR-5 and in the experiment with OVCAR-8 was > 100 µM (inactive) each time. In addition, the GI50 with SF-268, in the experiment on SF-295, in the experiment on SK-MEL-28, with SNB-75, with T47D and in the experiment on UO-31 was > 100 µM (inactive) in each case.
